From patent US20230201426A1, “GEL COMPOSITION AND PRODUCTION METHOD THEREFOR, AND THREE-DIMENSIONAL TISSUE BODY AND PRODUCTION METHOD THEREFOR” (TOPPAN INC., priority 2020, published 2023) come the findings set out here.

In the data set the test system is human mammary gland cancer cells (MDA-MB-231). The data set can be described thus: Viability of cells cultured after mixing the cell suspension with the Pt^2+ solution alone. Particulars: final concentration of Pt^2+ 0.05 mM to 0.5 mM. In kind it is cell-based.

As to `[Cl][Pt-2]([Cl])([Cl])[Cl].[K+].[K+]` [Pt^2+ solution, Potassium tetrachloroplatinate(II) (K2PtCl4)], the cytotoxicity result was “significant cytotoxicity was not recognized”.
